# Assay results from US9593110B2, “Neprilysin inhibitors” (Theravence Biopharma R&D IP, LLC, priority 2014, dated 2017).
# Biological target: human NEP (Homo sapiens (Human), UniProt P08473)
# Assay: In vitro enzyme inhibition assay at human NEP
# Settings: pKi, recombinant human NEP, fluorogenic peptide substrate, 37° C.
# Protocol: The inhibitory activities of compounds at human and rat neprilysin (EC 3.4.24.11; NEP) and human angiotensin converting enzyme (ACE) were determined using in vitro assays as described below.
# The assays were performed in 384-well white opaque plates at 37° C. using the fluorogenic peptide substrates at a concentration of 10 μM in Assay Buffer (NEP: 50 mM HEPES, pH 7.5, 100 mM NaCl, 0.01% polyethylene glycol sorbitan monolaurate (Tween-20), 10 μM ZnSO4; ACE: 50 mM HEPES, pH 7.5, 100 mM NaCl, 0.01% Tween-20, 1 μM ZnSO4).
# Test compounds were assayed over the range of concentrations from 10 μM to 20 pM. Test compounds were added to the enzymes and incubated for 30 minute at 37° C. prior to initiating the reaction by the addition of substrate.
# Plates were read on a fluorometer with excitation and emission wavelengths set to 320 nm and 405 nm, respectively Inhibition constants were obtained by nonlinear regression of the data using the equation (GraphPad Software, Inc., San Diego, Calif.): v=v0/[1+(I/K′)] where v is the reaction rate, v0 is the uninhibited reaction rate, I is the inhibitor concentration and K′ is the apparent inhibition constant.
# Chain of human NEP (P08473 52-750): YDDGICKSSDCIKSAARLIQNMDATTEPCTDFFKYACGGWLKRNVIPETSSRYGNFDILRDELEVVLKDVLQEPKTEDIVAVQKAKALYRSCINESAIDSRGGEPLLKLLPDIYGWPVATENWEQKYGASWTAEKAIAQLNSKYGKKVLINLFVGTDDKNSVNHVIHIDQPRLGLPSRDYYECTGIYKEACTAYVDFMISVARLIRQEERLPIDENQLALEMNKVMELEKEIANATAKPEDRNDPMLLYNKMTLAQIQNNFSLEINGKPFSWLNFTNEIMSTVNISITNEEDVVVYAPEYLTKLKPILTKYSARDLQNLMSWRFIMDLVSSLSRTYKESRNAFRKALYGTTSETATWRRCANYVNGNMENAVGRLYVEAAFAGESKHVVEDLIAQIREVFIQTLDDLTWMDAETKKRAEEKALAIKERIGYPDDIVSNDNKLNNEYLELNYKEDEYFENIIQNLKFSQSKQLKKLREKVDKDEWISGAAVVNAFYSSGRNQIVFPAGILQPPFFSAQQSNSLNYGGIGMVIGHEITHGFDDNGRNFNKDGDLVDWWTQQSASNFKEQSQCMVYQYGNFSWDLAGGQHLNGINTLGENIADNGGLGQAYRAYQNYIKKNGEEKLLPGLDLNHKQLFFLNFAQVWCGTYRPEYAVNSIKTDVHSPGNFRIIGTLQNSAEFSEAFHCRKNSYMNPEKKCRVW
row,Structure (SMILES),Ki [nM]
1,"CC(C)c1coc(C(=O)N[C@H](Cc2ccc(-c3cc(Cl)ccc3F)cc2)C[C@@H](NC(=O)[C@@H](C)N)C(=O)O)n1 [Example 36-2, (2R,4R)-2-((R)-2-Aminopropionylamino)-5-(5′-chloro-2′-fluorobiphenyl-4-yl)-4-[(4-isopropy-oxazole-2-carbonyl)-amino]pentanoic Acid]",1.26 to 3.16
2,"CC(C)c1coc(C(=O)N[C@H](Cc2ccc(-c3cc(Cl)ccc3F)cc2)C[C@@H](NC(=O)[C@H](N)C(C)C)C(=O)O)n1 [Example 38-1, (2R,4R)-2-((R)-2-Amino-3-methylbutyrylamino)-5-(5′-chloro-2′-fluorobiphenyl-4-yl)-4-[(4-isopropyloxazole-2-carbonyl)amino]pentanoic Acid]",3.16 to 10
3,"CC(C)c1coc(C(=O)N[C@H](Cc2ccc(-c3cc(Cl)ccc3F)cc2)C[C@@H](NC(=O)[C@@H](N)C(C)C)C(=O)O)n1 [Example 38-2, (2R,4R)-2-((S)-2-Amino-3-methylbutyrylamino)-5-(5′-chloro-2′-fluorobiphenyl-4-yl)-4-[(4-isopropyloxazole-2-carbonyl)-amino]pentanoic Acid]",1.26 to 3.16
4,"CC(C)c1coc(C(=O)N[C@H](Cc2ccc(-c3cc(Cl)ccc3F)cc2)C[C@@H](NC(=O)[C@H](N)CO)C(=O)O)n1 [Example 42-1, (2R,4R)-2-((R)-2-Amino-3-hydroxypropionylamino)-5-(5′-chloro-2′-fluorobiphenyl-4-yl)-4-[(4-isopropyloxazole-2-carbonyl)-amino]pentanoic Acid]",1.26 to 3.16
5,"CC(C)c1coc(C(=O)N[C@H](Cc2ccc(-c3cc(Cl)ccc3F)cc2)C[C@@H](NC(=O)[C@@H](N)CO)C(=O)O)n1 [Example 42-2, (2R,4R)-2-((S)-2-Amino-3-hydroxypropionylamino)-5-(5′-chloro-2′-fluorobiphenyl-4-yl)-4-[(4-isopropyloxazole-2-carbonyl)amino]pentanoic Acid]",1.26 to 3.16
6,"Cc1cnc(C(=O)N[C@H](Cc2ccc(-c3cc(Cl)ccc3F)cc2)C[C@@H](CNC(=O)CN)C(=O)O)o1 [Example 43, (2S,4S)-2-[(2-Aminoacetylamino)methyl]-5-(5′-chloro-2′-fluorobiphenyl-4-yl)-4-[(5-methyloxazole-2-carbonyl)amino]pentanoic Acid]",≤ 1
7,"Cc1cnc(C(=O)N[C@H](Cc2ccc(-c3cc(Cl)ccc3F)cc2)C[C@@H](CNC(=O)C(C)(C)N)C(=O)O)o1 [Example 45, (2S,4S)-2-[(2-Amino-2-methylpropionylamino)methyl]-5-(5′-chloro-2′-fluorobiphenyl-4-yl)-4-[(5-methyloxazole-2-carbonyl)-amino]pentanoic Acid]",≤ 1
8,"COC(=O)N[C@H](C(=O)N[C@H](C[C@@H](Cc1ccc(-c2cc(Cl)ccc2F)cc1)NC(=O)c1c[nH]nn1)C(=O)O)C(C)C [Example 46, (2R,4R)-5-(5′-Chloro-2′-fluorobiphenyl-4-yl)-2-((S)-2-methoxycarbonylamino-3-methylbutyrylamino)-4-[(1H-[1,2,3]triazole-4-carbonyl)amino]pentanoic Acid]",1.26 to 3.16
9,"CS(=O)(=O)N[C@H](C[C@@H](Cc1ccc(-c2ccccc2)cc1)NC(=O)c1c[nH]nn1)C(=O)O [Example 47, (2R,4R)-5-Biphenyl-4-yl-2-methanesulfonylamino-4-[(1H-[1,2,3]triazole-4-carbonyl)amino]pentanoic Acid]",3.16 to 10
10,"N#CC[C@H](C[C@@H](Cc1ccc(-c2cc(Cl)ccc2F)cc1)NC(=O)c1c[nH]nn1)C(=O)O [Example 51, (2S,4S)-5-(5′-chloro-2′-fluorobiphenyl-4-yl)-2-cyanomethyl-4-[(3H-[1,2,3]triazole-4-carbonyl)amino]pentanoic acid]",1.26 to 3.16
11,"N#CC[C@H](C[C@@H](Cc1ccc(-c2cc(Cl)ccc2F)cc1)NC(=O)c1cnsc1)C(=O)O [Example 52-3, (2S,4S)-5-(5′-Chloro-2′-fluorobiphenyl-4-yl)-2-cyanomethyl-4-[(isothiazole-4-carbonyl)amino]pentanoic acid]",1.26 to 3.16
12,"NC(=O)C[C@@H](C[C@@H](Cc1ccc(-c2cccc(F)c2)cc1)NC(=O)c1cnn[nH]1)C(=O)O [Example 54, (2R,4S)-2-Carbamoylmethyl-5-(3′-fluorobiphenyl-4-yl)-4-[(3H-[1,2,3]triazole-4-carbonyl)amino]pentanoic Acid]",1.26 to 3.16
13,"O=C(N[C@H](Cc1ccc(-c2cc(Cl)ccc2F)cc1)C[C@@H](NC(=O)[C@@H]1CCCN1)C(=O)O)c1cnn[nH]1 [Example 55, (2R,4R)-5-(5′-Chloro-2′-fluorobiphenyl-4-yl)-2-[((S)-pyrrolidine-2-carbonyl)amino]-4-[(3H-[1,2,3]triazole-4-carbonyl)amino]pentanoic Acid]",3.16 to 10
14,"NCCCC[C@H](N)C(=O)N[C@H](C[C@@H](Cc1ccc(-c2cc(Cl)ccc2F)cc1)NC(=O)c1cnn[nH]1)C(=O)O [Example 56, (2R,4R)-5-(5′-Chloro-2′-fluorobiphenyl-4-yl)-2-((S)-2,6-diaminohexanoylamino)-4-[(3H-[1,2,3]triazole-4-carbonyl)amino]pentanoic Acid]",1.26 to 3.16
15,"O=C(N[C@H](Cc1ccc(-c2cc(Cl)ccc2F)cc1)C[C@@H](Cn1ccnn1)C(=O)O)c1cnn[nH]1 [Example 61a, (2S,4S)-5-(5′-Chloro-2′-fluorobiphenyl-4-yl)-4-[(3H-[1,2,3]triazole-4-carbonyl)amino]-2-[1,2,3]triazol-1-ylmethylpentanoic Acid]",≤ 1
16,"O=C(N[C@H](Cc1ccc(-c2cc(Cl)ccc2F)cc1)C[C@@H](Cn1nccn1)C(=O)O)c1cnn[nH]1 [Example 61b, (2S,4S)-5-(5′-Chloro-2′-fluorobiphenyl-4-yl)-4-[(3H-[1,2,3]triazole-4-carbonyl)amino]-2-[1,2,3]triazol-2-ylmethylpentanoic Acid]",≤ 1
17,"O=C(N[C@H](Cc1ccc(-c2cc(Cl)ccc2F)cc1)C[C@@H](Cc1nnn[nH]1)C(=O)O)c1cnn[nH]1 [Example 63, (2S,4S)-5-(5′-Chloro-2′-fluorobiphenyl-4-yl)-2-(1H-tetrazol-5-ylmethyl)-4-[(3H-[1,2,3]triazole-4-carbonyl)amino]pentanoic Acid]",1.26 to 3.16
18,"CN(C)CC(=O)N[C@H](C[C@@H](Cc1ccc(-c2cc(Cl)ccc2F)cc1)NC(=O)c1cnn[nH]1)C(=O)O [Example 64, (2R,4R)-5-(5′-Chloro-2′-fluorobiphenyl-4-yl)-2-(2-dimethylaminoacetylamino)-4-[(3H-[1,2,3]triazole-4-carbonyl)amino]pentanoic Acid]",1.26 to 3.16

# Second part, the molecule after the results:
row,Ki [nM],Structure (SMILES)
1,≤ 1,"NCCCC(=O)N[C@H](C[C@@H](Cc1ccc(-c2cc(Cl)ccc2F)cc1)NC(=O)c1cnn[nH]1)C(=O)O [Example 40, (2R,4R)-2-(4-Aminobutyrylamino)-5-(5′-chloro-2′-fluorobiphenyl-4-yl)-4-[(3H-[1,2,3]triazole-4-carbonyl)amino]pentanoic Acid]"
2,1.26 to 3.16,"CNCC(=O)N[C@H](C[C@@H](Cc1ccc(-c2cc(Cl)ccc2F)cc1)NC(=O)c1cnn[nH]1)C(=O)O [Example 65, (2R,4R)-5-(5′-Chloro-2′-fluorobiphenyl-4-yl)-2-(2-methylaminoacetylamino)-4-[(3H-[1,2,3]triazole-4-carbonyl)amino]pentanoic Acid]"

# Same assay, conditions: recombinant human NEP, fluorogenic peptide substrate, 37° C.
row,Structure (SMILES),pKi
1,"N#CC[C@H](C[C@@H](Cc1ccc(-c2ccccc2)cc1)NC(=O)c1cnn[nH]1)C(=O)O [Example 50, (2S,4S)-5-Biphenyl-4-yl-2-cyanomethyl-4-[(3H-[1,2,3]triazole-4-carbonyl)amino]pentanoic Acid]",≧9.0
2,"NC(=O)C[C@H](C[C@@H](Cc1ccc(-c2ccccc2)cc1)NC(=O)c1cnn[nH]1)C(=O)O [Example 53, (2S,4S)-5-Biphenyl-4-yl-2-carbamoylmethyl-4-[(3H-[1,2,3]triazole-4-carbonyl)amino]pentanoic Acid]",≧9.0

# More lines, now with the values ahead:
row,pKi,Structure (SMILES)
1,≧9.0,"C[C@H](N)C(=O)N[C@H](C[C@@H](Cc1ccc(-c2cc(Cl)ccc2F)cc1)NC(=O)c1cnn[nH]1)C(=O)O [Example 37-1, (2R,4R)-2-((S)-2-Aminopropionylamino)-5-(5′-chloro-2′-fluorobiphenyl-4-yl)-4-[(3H-[1,2,3]triazole-4-carbonyl)amino]pentanoic acid]"
2,≧9.0,"CC(C)[C@H](N)C(=O)N[C@H](C[C@@H](Cc1ccc(-c2cc(Cl)ccc2F)cc1)NC(=O)c1cnn[nH]1)C(=O)O [Example 39-1, (2R,4R)-2-((S)-2-Amino-3-methylbutyrylamino)-5-(5′-chloro-2′-fluorobiphenyl-4-yl)-4-[(3H-[1,2,3]triazole-4-carbonyl)amino]pentanoic acid]"
3,≧9.0,"NCCC(=O)N[C@H](C[C@@H](Cc1ccc(-c2cc(Cl)ccc2F)cc1)NC(=O)c1cnn[nH]1)C(=O)O [Example 41, (2R,4R)-2-(3-Aminopropionylamino)-5-(5′-chloro-2′-fluoro-biphenyl-4-yl)-4-[(3H-[1,2,3]triazole-4-carbonyl)amino]pentanoic Acid]"
4,≧9.0,"NCC(=O)NC[C@H](C[C@@H](Cc1ccc(-c2cc(Cl)ccc2F)cc1)NC(=O)c1cnn[nH]1)C(=O)O [Example 44-1, (2S,4S)-2-[(2-Aminoacetylamino)methyl]-5-(5′-chloro-2′-fluorobiphenyl-4-yl)-4-[(3H-[1,2,3]triazole-4-carbonyl)amino]pentanoic acid]"
5,≧9.0,"N[C@@H](Cc1ccccc1)C(=O)N[C@H](C[C@@H](Cc1ccc(-c2cc(Cl)ccc2F)cc1)NC(=O)c1cnn[nH]1)C(=O)O [Example 57, (2R,4R)-2-((S)-2-Amino-3-phenylpropionylamino)-5-(5′-chloro-2′-fluorobiphenyl-4-yl)-4-[(3H-[1,2,3]triazole-4-carbonyl)amino]pentanoic Acid]"
6,≧9.0,"O=C(N[C@H](Cc1ccc(-c2cc(Cl)ccc2F)cc1)C[C@@H](Cn1ccnc1)C(=O)O)c1cnn[nH]1 [Example 62, (2S,4S)-5-(5′-Chloro-2′-fluorobiphenyl-4-yl)-2-imidazol-1-ylmethyl-4-[(3H-[1,2,3]triazole-4-carbonyl)amino]pentanoic Acid]"
